Laboratory results published in patent publication US9353415B2, “Methods for functional analysis of high-throughput experimental data and gene groups identified therefrom” (Thomson Reuters (Scientific) LLC, priority 2006, dated 2016).

System: CREB pathway
Test: microarray gene expression from the livers of rats exposed to drugs, mapped on pathway maps (signature networks method)
Format: in vivo
Conditions: rat liver, treated vs untreated, custom cDNA two-channel arrays, five repeats; no threshold for fold change and P-values; FIG. 16C
Experimental: This dataset contains microarray gene expression from the livers of rats exposed to three drugs: phenobarbital, mestranol, and tamoxifen. The data were produced by custom cDNA two-channel arrays. Five biological repeats were performed for each treatment and a set of five samples from the untreated animals were analyzed.
A pre-computed comprehensive set of overlapping canonical pathways derived from 450 signaling and metabolic pathway maps manually created using a general database, MetaCore™ was obtained. These pathways then were used as a framework for mapping experimental datasets as well as to calculate the network modules most relevant to specific pathways (FIG. 15). The maps feature approximately 3,000 proteins and over 2,000 overlapping human pathways. On these maps, typical signaling inputs (indicated by block arrows) are identified. The network modules were then generated as chains of interactions/reactions initiated at one of the signaling inputs and followed down to the last protein identified in the canonical pathway; such termini often are transcription factors and their targets. These pathways represent linear modules of cell signaling, usually parts of signaling cascades between secondary messengers and transcription factors. […]
FIG. 16C is the top scored CREB pathway map for the genes content of the network A. Gene expression was mapped without thresholds. […]

With `CC/C(=C(\c1ccccc1)c1ccc(OCCN(C)C)cc1)c1ccccc1` [tamoxifen] the “direction of expression (fold change) of genes on the highest scored pathway map, CREB pathway” value was “down-regulated”.
